Source: US11512054B2, “Pesticidal compounds” (BASF SE, priority 2017, dated 2022)

Assays:
Format in all cases: in vivo
[1] = tested on: yellow fever mosquito (Aedes aegypti); experiment: whole plant or invertebrate; details: 48 h, larval mortality visually assessed after 2 days, read-out: mortality in comparison with untreated controls
Protocol: For evaluating control of yellow fever mosquito (Aedes aegypti) the test unit consisted of 96-well-microtiter plates containing 200 μl of tap water per well and 5-15 freshly hatched A. aegypti larvae.
The active compounds or mixtures were formulated using a solution containing 75% (v/v) water and 25% (v/v) DMSO. Different concentrations of formulated compounds or mixtures were sprayed onto the insect diet at 2.5 μl, using a custom built micro atomizer, at two replications. For experimental mixtures in these tests identical volumes of both mixing partners at the desired concentrations respectively, were mixed together.
After application, microtiter plates were incubated at 28±1° C., 80±5% RH for 2 days. Larval mortality was then visually assessed.

[2] = tested on: Orchid Thrips (Dichromothrips corbetti); experiment: Action on orchid thrips, floral-immersion technique; details: adult thrips, 72 hours after treatment, read-out: mortality in comparison with untreated controls
Protocol: Dichromothrips corbetti adults used for bioassay were obtained from a colony maintained continuously under laboratory conditions. For testing purposes, the test compound is diluted in a 1:1 mixture of acetone:water (vol:vol), plus Kinetic® HV at a rate of 0.01% v/v.
Thrips potency of each compound was evaluated by using a floral-immersion technique. All petals of individual, intact orchid flowers were dipped into treatment solution and allowed to dry in Petri dishes. Treated petals were placed into individual re-sealable plastic along with about 20 adult thrips. All test arenas were held under continuous light and a temperature of about 28° C. for duration of the assay. After 3 days, the numbers of live thrips were counted on each petal. The percent mortality was recorded 72 hours after treatment.

[3] = tested on: boll weevil (Anthonomus grandis); experiment: Action on boll weevil, eggs on insect diet in 96-well microtiter plates; details: 120 h, egg and larval mortality after 5 days, read-out: mortality in comparison with untreated controls
Protocol: For evaluating control of boll weevil (Anthonomus grandis) the test unit consisted of 96-well-microtiter plates containing an insect diet and 5-10 A. grandis eggs.
The compounds were formulated using a solution containing 75% (v/v) water and 25% (v/v) DMSO. Different concentrations of formulated compounds were sprayed onto the insect diet at 5 μl, using a custom built micro atomizer, at two replications.
After application, microtiter plates were incubated at about 25+1° C. and about 75+5% relative humidity for 5 days. Egg and larval mortality was then visually assessed.

[4] = tested on: tobacco budworm (Heliothis virescens); experiment: Action on tobacco budworm, eggs on insect diet in 96-well microtiter plates; details: 120 h, egg and larval mortality after 5 days, read-out: mortality in comparison with untreated controls
Protocol: For evaluating control of tobacco budworm (Heliothis virescens) the test unit consisted of 96-well-microtiter plates containing an insect diet and 15-25 H. virescens eggs.
The compounds were formulated using a solution containing 75% v/v water and 25% v/v DMSO. Different concentrations of formulated compounds were sprayed onto the insect diet at 10 μl, using a custom built micro atomizer, at two replications.
After application, microtiter plates were incubated at about 28+1° C. and about 80+5% relative humidity for 5 days. Egg and larval mortality was then visually assessed.

[5] = tested on: Diamond Back Moth (Plutella xylostella); experiment: Action on diamond back moth, cabbage leaf dip; details: foliar, 3rd instar larvae, 72 hours after treatment, read-out: mortality in comparison with untreated controls
Protocol: The active compound is dissolved at the desired concentration in a mixture of 1:1 (v/v) distilled water:acetone. Surfactant (Kinetic® HV) is added at a rate of 0.01% (v/v). The test solution is prepared at the day of use.
Leaves of cabbage were dipped in test solution and air-dried. Treated leaves were placed in petri dishes lined with moist filter paper and inoculated with ten 3rd instar larvae. Mortality was recorded 72 hours after treatment. Feeding damages were also recorded using a scale of 0-100%.

[6] = tested on: Silverleaf Whitefly (Bemisia argentifoli) (Adults); experiment: Action on silverleaf whitefly adults, sprayed cotton plants; details: Bemisia argentifolii, 72 h, 3 days after treatment, read-out: mortality in comparison with untreated controls
Protocol: (§1) The active compounds were formulated by a Tecan liquid handler in 100% cyclohexanone as a 10,000 ppm solution supplied in tubes. The 10,000 ppm solution was serially diluted in 100% cyclohexanone to make interim solutions. These served as stock solutions for which final dilutions were made by the Tecan in 50% acetone:50% water (v/v) into 5 or 10 ml glass vials. A nonionic surfactant (Kinetic®) was included in the solution at a volume of 0.01% (v/v). The vials were then inserted into an automated electrostatic sprayer equipped with an atomizing nozzle for application to plants/insects.
Cotton plants at the cotyledon stage (one plant per pot) were sprayed by an automated electrostatic plant sprayer equipped with an atomizing spray nozzle. The plants were dried in the sprayer fume hood and then removed from the sprayer. Each pot was placed into a plastic cup and about 10 to 12 whitefly adults (approximately 3-5 days old) were introduced. The insects were collected using an aspirator and a nontoxic Tygon® tubing connected to a barrier pipette tip. The tip, containing the collected insects, was then gently inserted into the soil containing the treated plant, allowing insects to crawl out of the tip to reach the foliage for feeding. Cups were covered with a reusable screened lid. Test plants were maintained in a growth room at about 25° C. and about 20-40% relative humidity for 3 days, avoiding direct exposure to fluorescent light (24 hour photoperiod) to prevent trapping of heat inside the cup. Mortality was assessed 3 days after treatment, compared to untreated control plants.

[7] = tested on: Southern Armyworm (Spodoptera eridania), 2nd Instar Larvae; experiment: Action on southern armyworm, sprayed lima bean plants; details: 96 h, 2nd instar larvae on lima bean, 4 days after treatment, read-out: mortality in comparison with untreated controls
Protocol: as §1, with “into 10” for “into 5”, “or 20” for “or 10”
Lima bean plants (variety Sieva) were grown 2 plants to a pot and selected for treatment at the 1st true leaf stage. Test solutions were sprayed onto the foliage by an automated electrostatic plant sprayer equipped with an atomizing spray nozzle. The plants were dried in the sprayer fume hood and then removed from the sprayer. Each pot was placed into perforated plastic bags with a zip closure. About 10 to 11 armyworm larvae were placed into the bag and the bags zipped closed. Test plants were maintained in a growth room at about 25° C. and about 20-40% relative humidity for 4 days, avoiding direct exposure to fluorescent light (24 hour photoperiod) to prevent trapping of heat inside the bags. Mortality and reduced feeding were assessed 4 days after treatment, compared to untreated control plants.

| SMILES | mortality at 800 ppm [1] [%] | mortality at 500 ppm [2] [%] | mortality at 800 ppm [3] [%] | mortality at 800 ppm [4] [%] | mortality at 500 ppm [5] [%] | mortality at 300 ppm [6] [%] | mortality at 300 ppm [7] [%] |
| --- | --- | --- | --- | --- | --- | --- | --- |
| C/N=C(/c1nn(C)c2cc(/C=N/NC(=S)Nc3ccccc3C(C)C)ccc12)N(C)c1ccc(OC(F)(F)F)cc1 [Example C-3, 1-[(E)-[3-[(Z)—N,N′-dimethyl-N-[4-(trifluoromethoxy)phenyl]carbamimidoyl]-1-methyl-indazol-6-yl]methyleneamino]-3-(2-isopropylphenyl)thiourea] | ≥ 50 | ≥ 75 | ≥ 75 | ≥ 75 | ≥ 75 |  |  |
| CO[C@@H]1[C@@H](OC)[C@H](C)O[C@@H](OC(=O)Nc2ccc3c(C(=S)N(C)c4ccc(OC(F)(F)F)cc4)nn(C)c3c2)[C@@H]1OC [Example C-4, [(2S,3R,4R,5S,6S)-3,4,5-trimethoxy-6-methyl-tetrahydropyran-2-yl]N-[1-methyl-3-[methyl-[4-(trifluoromethoxy)phenyl]carbamothioyl]indazol-6-yl]carbamate] | ≥ 50 | ≥ 75 | ≥ 75 | ≥ 75 | ≥ 75 | ≥ 75 |  |
| CON=C(Nc1ccc(OC(F)(F)F)cc1)c1nn(C)c2cc(/C=N/N=C3\SC(=O)CN3c3ccccc3C(C)C)ccc12 [Example C-6, 6-[(E)-[(Z)-[3-(2-isopropylphenyl)-5-oxo-thiazolidin-2-ylidene]hydrazono]methyl]-N′-methoxy-1-methyl-N-[4-(trifluoromethoxy)phenyl]indazole-3-carboxamidine] | ≥ 50 | ≥ 75 | ≥ 75 | ≥ 75 | ≥ 75 |  | ≥ 75 |
| CC(C)c1ccccc1NC(=S)N/N=C/c1ccc2c(/C(N)=N/c3ccc(OC(F)(F)F)cc3)nsc2c1 [Example C-20, 1-(2-isopropylphenyl)-3-[(E)-[3-[(Z)—N′-[4-(trifluoromethoxy)phenyl]carbamimidoyl]-1,2-benzothiazol-6-yl]methyleneamino]thiourea] | ≥ 50 | ≥ 75 | ≥ 75 | ≥ 75 | ≥ 75 |  |  |
| CC(C)c1ccccc1N1C(=O)CS/C1=N\N=C\c1ccc2c(C(N)=Nc3ccc(OC(F)(F)F)cc3)nsc2c1 [Example C-21, 6-[(E)-[(Z)-[3-(2-isopropylphenyl)-4-oxo-thiazolidin-2-ylidene]hydrazono]methyl]-N′[4-(trifluoromethoxy)phenyl]-1,2-benzothiazole-3-carboxamidine] | ≥ 50 | ≥ 75 | ≥ 75 | ≥ 75 | ≥ 75 |  | ≥ 75 |
| CC(C)c1ccccc1NC(=S)N/N=C/c1ccc2c(/C=N/c3ccc(OC(F)(F)F)cc3)nn(C)c2c1 [Example C-24, 1-(2-isopropylphenyl)-3-[(E)-[1-methyl-3-[(E)-[4-(trifluoromethoxy)phenyl]iminomethyl]indazol-6-yl]methyleneamino]thiourea] | ≥ 50 |  |  | ≥ 75 | ≥ 75 |  |  |
| CC(C)c1ccccc1N1C(=O)CS/C1=N\N=C\c1ccc2c(/C=N/c3ccc(OC(F)(F)F)cc3)nn(C)c2c1 [Example C-25, (2Z)-3-(2-isopropylphenyl)-2-[(E)-[1-methyl-3-[(E)-[4-(trifluoromethoxy)phenyl]iminomethyl]indazol-6-yl]methylenehydrazono]thiazolidin-4-one] |  |  |  | ≥ 75 | ≥ 75 |  |  |
| CC(C)c1ccccc1NC(=S)N/N=C/c1ccc2c(C(=N)Nc3ccc(OC(F)(F)F)cc3)nn(C)c2n1 [Example C-26, 1-(2-isopropylphenyl)-3-[(E)-[1-methyl-3-[N-[4-(trifluoromethoxy)phenyl]carbamimidoyl]pyrazolo[3,4-b]pyridin-6-yl]methyleneamino]thiourea] | ≥ 50 | ≥ 75 | ≥ 75 | ≥ 75 | ≥ 75 |  | ≥ 75 |
| CC(C)c1ccccc1N1C(=O)CS/C1=N\N=C\c1ccc2c(C(=N)Nc3ccc(OC(F)(F)F)cc3)nn(C)c2n1 [Example C-27, 6-[(E)-[(Z)-[3-(2-isopropylphenyl)-4-oxo-thiazolidin-2-ylidene]hydrazono]methyl]-1-methyl-N-[4-(trifluoromethoxy)phenyl]pyrazolo[3,4-b]pyridine-3-carboxamidine] | ≥ 50 | ≥ 75 | ≥ 75 | ≥ 75 | ≥ 75 |  | ≥ 75 |
| CC(C)c1ccccc1N1CCS/C1=N\N=C\c1ccc2c(C(=N)Nc3ccc(OC(F)(F)F)cc3)nn(C)c2c1 [Example C-36, 6-[(E)-[(Z)-[3-(2-isopropylphenyl)thiazolidin-2-ylidene]hydrazono]methyl]-1-methyl-N-[4-(trifluoromethoxy)phenyl]indazole-3-carboxamidine] | ≥ 50 | ≥ 75 | ≥ 75 | ≥ 75 | ≥ 75 |  |  |
| CC(C)c1ccccc1N1CCCS/C1=N\N=C\c1ccc2c(C(=N)Nc3ccc(OC(F)(F)F)cc3)nn(C)c2c1 [Example C-37, 6-[(E)-[(Z)-[3-(2-isopropylphenyl)-1,3-thiazinan-2-ylidene]hydrazono]methyl]-1-methyl-N-[4-(trifluoromethoxy)phenyl]indazole-3-carboxamidine] | ≥ 50 | ≥ 75 | ≥ 75 | ≥ 75 | ≥ 75 |  |  |
